Data reported in PMC10364322, “Evaluation of chronic drug-induced electrophysiological and cytotoxic effects using human-induced pluripotent stem cell-derived cardiomyocytes (hiPSC-CMs)” (Frontiers in Pharmacology, 2023).
Where two headings read alike, the source gives them in different places.

Legend:
[1] = tested on: hiPSC-CMs (iCell-Cardiomyocytes^2)
Experimental: (§1) Cells were seeded according to the instructions of the cell provider, in fibronectin-coated 48-well MEA plates (Axion Cytoview Plates, M768-tMEA-48B) at a density suited to form a monolayer (i.e., 50 K/well) and maintained in culture in a stage incubator (37°C, 5% CO2).
(§2) At least 4 h before the beginning of the baseline measurements, a full medium exchange was performed (to a final volume of 400 µL per well). Neat compounds were dissolved in 100% DMSO at a stock concentration 1000-fold the highest target concentration. […] Afterwards, these stock solutions were diluted with Maintenance medium (CDi), to 10-fold the intended concentration. The final DMSO concentration in test solutions and vehicle control was 0.1%.
(§3) Spontaneous electrical activity was recorded in hiPSC-CMs monolayers as field potentials using the Maestro Pro MEA instrument (Axion Biosystems, Atlanta, GA, United States), which allows the maintenance of accurate temperature and CO2 levels (37°C, 5% CO2). After the plate was placed in the Maestro Pro and allowed to equilibrate for about 10 min, baseline acquisition of field potential and impedance signals was initiated and lasted for 5 min each. […] As impedance measures resistance of an applied alternating current through the hiPSC-CMs monolayer, a reduction in the attachment of hiPSC-CMs to the bottom of the well due to cell death or changes in the monolayer morphology, causes a drop in the impedance signal.
The potential presence of various arrhythmic events was evaluated and noted during the data analysis.
(§4) After the acquisition of all timepoint measurements, raw data were loaded into the data analysis software Axion Cardiac Analysis Tool (V.3.2.3). […] A.csv file containing information on the FP parameters per well, per time point, was then generated and used as input to the in-house data management system (SPEcII v.3.4, Unlimit-IT, Geel, Belgium), where descriptive statistics were calculated. Summary values at different time points after compound addition are expressed as percent change from baseline and shown as mean ± standard deviation (SD).
(§5) The nonparametric Wilcoxon-Mann Whitney Test was used to compare the percent change from the baseline (Δ%) value between the group treated with the compound at a given concentration and the group treated with the DMSO at each matching time points. A two-sided test at 5% significance level was considered. […] To assess the physiological relevance of changes, a tolerance interval of DMSO experiments was calculated at each time point, for each parameter. […] TIs indicate an interval where, with a certain confidence level (1- α = 0.95), a specified proportion (p = 0.80) of percent change for DMSO data falls. The lower and upper limits based on the TI values were used as cut-offs for the interpretation of the changes. For the cytotoxicity assays, measurements of fluorescence (after background fluorescence subtraction) from wells treated with the compounds were normalized by the average value of vehicle experiments (DMSO 0.1%) to obtain a DMSO-corrected, delta/delta percent change. Experiments from each condition, as delta/delta percent, were averaged and expressed as mean ± SD. Statistical analysis was performed using a non-parametric test (Kruskal-Wallis) and each treatment condition was compared to the relative DMSO 0.1%. Differences were considered statistically significant when the p-value was smaller than 0.05.

[2] = tested on: hiPSC-CMs (iCell-Cardiomyocytes^2); test: MEA impedance (cytotoxicity readout) in hiPSC-CMs
Experimental: as §1, §2, §3, §4, §5

- FPDc (field-potential duration corrected by beat-rate), % change from baseline ([1]; 1 µM, 2h): 110.2±0 %
- Flat T-wave-like, number of observations/total well numbers ([1]; 1 µM, 2h): 4/5
- BR (beating rate), % change from baseline ([1]; 1 µM, 24h): -59±5 %
- Beating below threshold, number of observations/total well numbers ([1]; 1 µM, 24h): 0/5
- Cessation of beating, number of observations/total well numbers ([1]; 1 µM, 24h): 0/5
- EAD, number of observations/total well numbers ([1]; 1 µM, 24h): 1/5
- Flat T-wave-like, number of observations/total well numbers ([1]; 1 µM, 24h): 5/5
- BR (beating rate), % change from baseline ([1]; 1 µM, 48h): -65±2 %
- Beating below threshold, number of observations/total well numbers ([1]; 1 µM, 48h): 0/5
- Cessation of beating, number of observations/total well numbers ([1]; 1 µM, 48h): 0/5
- EAD, number of observations/total well numbers ([1]; 1 µM, 48h): 2/5
- Flat T-wave-like, number of observations/total well numbers ([1]; 1 µM, 48h): 5/5
- BR (beating rate), % change from baseline ([1]; 1 µM, 72h): -68±2 %
- Beating below threshold, number of observations/total well numbers ([1]; 1 µM, 72h): 1/5
- Cessation of beating, number of observations/total well numbers ([1]; 1 µM, 72h): 1/5
- EAD, number of observations/total well numbers ([1]; 1 µM, 72h): 0/5
- Flat T-wave-like, number of observations/total well numbers ([1]; 1 µM, 72h): 3/5
- BR (beating rate), % change from baseline ([1]; 1 µM, 96h): -68±0 %
- Beating below threshold, number of observations/total well numbers ([1]; 1 µM, 96h): 0/5
- Cessation of beating, number of observations/total well numbers ([1]; 1 µM, 96h): 4/5
- EAD, number of observations/total well numbers ([1]; 1 µM, 96h): 0/5
- Flat T-wave-like, number of observations/total well numbers ([1]; 1 µM, 96h): 1/5
- time point from which cessation of beating occurred in all wells ([1]; 3 µM): 24 h
- Beating below threshold, number of observations/total well numbers ([1]; 3 µM, 72h): 0/5
- Cessation of beating, number of observations/total well numbers ([1]; 3 µM, 72h): 5/5
- EAD, number of observations/total well numbers ([1]; 3 µM, 72h): 0/5
- Flat T-wave-like, number of observations/total well numbers ([1]; 3 µM, 72h): 0/5
- Beating below threshold, number of observations/total well numbers ([1]; 3 µM, 96h): 0/5
- Cessation of beating, number of observations/total well numbers ([1]; 3 µM, 96h): 5/5
- EAD, number of observations/total well numbers ([1]; 3 µM, 96h): 0/5
- Flat T-wave-like, number of observations/total well numbers ([1]; 3 µM, 96h): 0/5
- BR (beating rate), % change from baseline ([1]; 3 µM, 2h): -58±4 %
- Beating below threshold, number of observations/total well numbers ([1]; 3 µM, 2h): 0/5
- Cessation of beating, number of observations/total well numbers ([1]; 3 µM, 2h): 0/5
- EAD, number of observations/total well numbers ([1]; 3 µM, 2h): 0/5
- EAD-like events ([1]; 3 µM, 2h): EAD-like events occurred
- Flat T-wave-like, number of observations/total well numbers ([1]; 3 µM, 2h): 5/5
- BR (beating rate), % change from baseline ([1]; 3 µM, 24h): -71±1 %
- Beating below threshold, number of observations/total well numbers ([1]; 3 µM, 24h): 0/5
- Cessation of beating, number of observations/total well numbers ([1]; 3 µM, 24h): 3/5
- EAD, number of observations/total well numbers ([1]; 3 µM, 24h): 0/5
- Flat T-wave-like, number of observations/total well numbers ([1]; 3 µM, 24h): 2/5
- Beating below threshold, number of observations/total well numbers ([1]; 3 µM, 48h): 1/5
- Cessation of beating, number of observations/total well numbers ([1]; 3 µM, 48h): 4/5
- EAD, number of observations/total well numbers ([1]; 3 µM, 48h): 0/5
- Flat T-wave-like, number of observations/total well numbers ([1]; 3 µM, 48h): 0/5
Structure (SMILES): COc1cc2c(Nc3ccc(Br)cc3F)ncnc2cc1OCC1CCN(C)CC1 [Vandetanib]
- Imp (impedance), % change from baseline ([2]; 0.1 µM, 2h): -3±2%
- Imp (impedance), % change from baseline ([2]; 0.1 µM, 24h): -9±2%
- Imp (impedance), % change from baseline ([2]; 0.1 µM, 48h): -7±2%
- Imp (impedance), % change from baseline ([2]; 0.1 µM, 72h): -9±3%
- Imp (impedance), % change from baseline ([2]; 0.1 µM, 96h): -6±3%
- Imp (impedance), % change from baseline ([2]; 0.3 µM, 2h): -2±1%
- Imp (impedance), % change from baseline ([2]; 0.3 µM, 24h): -9±4%
- Imp (impedance), % change from baseline ([2]; 0.3 µM, 48h): -3±3%
- Imp (impedance), % change from baseline ([2]; 0.3 µM, 72h): -5±4%
- Imp (impedance), % change from baseline ([2]; 0.3 µM, 96h): -6±5%
- Imp (impedance), % change from baseline ([2]; 1 µM, 2h): -3±2%
- Imp (impedance), % change from baseline ([2]; 1 µM, 24h): -11±3%
- Imp (impedance), % change from baseline ([2]; 1 µM, 48h): -13±4%
- Imp (impedance), % change from baseline ([2]; 1 µM, 72h): -20±4 %
- Imp (impedance), % change from baseline ([2]; 1 µM, 96h): -20±5%
- Imp (impedance), % change from baseline ([2]; 3 µM, 72h): -44±7 %
- Imp (impedance), % change from baseline ([2]; 3 µM, 96h): -53±5 %
- Imp (impedance), % change from baseline ([2]; 3 µM, 2h): 2±4%
- Imp (impedance), % change from baseline ([2]; 3 µM, 24h): -16±3%
- Imp (impedance), % change from baseline ([2]; 3 µM, 48h): -30±5 %
